The values below come from article PMC8861095, “Neurotoxicological profile of the hallucinogenic compound 25I-NBOMe” (Scientific Reports, 2022).

The subject of one data set is DNA. The data set is described as follows: Alkaline comet assay on nuclei from frontal cortex and hippocampus. Conditions: for DNA damage (tail moment): single and repeated (× 7) 0.3 mg/kg sc, 72 h after administration, vs control. It is filed as in vivo, rat. As for the experimental part:
(§1) Animals received single or multiple (once per day for seven days) subcutaneous injections of 25I-NBOMe dissolved in 0.9% NaCl at a dose of 0.3 mg/kg/2 ml. The control group was treated with 0.9% NaCl solution in the same way. All procedures were performed 72 h after the last injection. The time point of 72 h was chosen due to the possible generation of neurotoxicity via oxidative stress caused by reactive oxygen species (ROS). Exceptionally, for initial 25I-NBOMe brain distribution studies, rats received the drug in the dose of 1 and 10 mg/kg and were sacrificed 15 min after the drug administration. The rat blood plasma and brain tissues were collected immediately after rats’ decapitation. LSD (0.05 mg/kg, ip) was given daily for 7 days in a volume of 1 ml/kg, while MDMA 5 mg/kg, ip was injected in a volume of 2 ml/kg every second day (overall 4 injections).
The alkaline comet assay was performed with the use of CometAssay® Reagent Kit for Single Cell Gel Electrophoresis Assay. At 72 h after the acute and chronic treatment with 25I-NBOMe (0.3 mg/kg, sc × 7 days), LSD (0.05 mg/kg, ip × 7 days) or MDMA (5 mg/kg, ip × 4 doses every second day) animals were sacrificed by decapitation and the frontal cortex (that consist of the sum of FC and mPFC) and hippocampus were dissected. After homogenization and several purification and centrifugation stages (as described previously in[17]), the nuclear suspension was obtained using a sucrose gradient (2.8 M/2.6 M, bottom to top). The nuclear fraction was mixed with low melting point agarose and transferred immediately onto CometSlides™. The following steps, including membrane lysis, DNA unwinding, alkaline electrophoresis, and staining (SYBR® Gold), were carried out according to Trevigen CometAssay® protocol. Stained sections were acquired and analyzed under a fluorescence microscope (Nikon Eclipse50i, Japan) equipped with a camera and NIS Elements software. The data was analyzed using OpenComet software v.1.3 (cometbio.org), a plugin of ImageJ program v.1.47 (NIH, Bethesda, MD, USA). DNA damage was presented as a tail moment. Tail moment incorporates a measure of both the smallest detectable size of migrating DNA (reflected by the comet tail length) and the number of damaged pieces (represented by the intensity of DNA in the tail).

Data set [1] has as its system p21 (CDC42/RAC)-activated kinase 1 (PAK1). On the set-up: method as in PMID 32597268. Conditions: cited from earlier work.
Another data set deals with H9c2 cells. Conditions: in vitro; cited from earlier work.
For the next data set, the system named is apoptosis. In words: TUNEL assay for apoptotic signal in brain slices. It is filed as in vivo, rat. Particulars: frontal cortex, anterior and posterior hippocampus; acute or chronic (× 7) 0.3 mg/kg; 72 h after treatment; qualitative. On the procedure: as §1
As described above, animals were perfused transcardially and brains were fixed overnight in 4% PFA, then gradually dehydrated and stored in 70% ethanol (EtOH). Paraffin-embedded brain tissue was sectioned on a microtome (Leica, RM45) for 7-µm-thick sections. […] The apoptotic signal was assessed using Click-iT™ Plus TUNEL Assay for in situ apoptosis detection with Alexa Fluor™ 488 picolyl azide dye. […] Stained slides were examined under a fluorescence microscope (Nikon Eclipse50i, Japan) equipped with a camera and NIS Elements software.

Data set [2] has as its system BrdU+ cells and BrdU/NeuN+ neurons in the hippocampus. Particulars: doses 0.1, 0.3, and 1 mg/kg; vs control rats; cited from earlier work.
For data set [3], the system named is primary mice cardiomyocytes. Particulars: in vitro; cited from earlier work.

In the case of `COc1cc(CCNCc2ccccc2OC)c(OC)cc1I` [25I-NBOMe, 4-Iodo-2,5-dimethoxy-N-(2-methoxybenzyl)phenethylamine], the “DNA damage (tail moment)” value in the data set on DNA (frontal cortex) and with DNA (hippocampus) was “produced DNA damage” each time. The “DNA damage after multiple injections compared with a single dose” value in the data set with DNA (hippocampus, 0.3 mg/kg sc × 7 vs single, 72 h) is given as “stronger than after a single dose”. For the same compound, the “In vitro activity of PAK1” value in data set [1] is “reduced”. Moreover, the Cell viability result (in the data set with H9c2 cells; in data set [3]) was “decreased the viability” in each case. In addition, the “Apoptotic signal (TUNEL)” value with apoptosis is “did not indicate apoptotic signal”. Also, in data set [2], the “Number of surviving BrdU+ cells and BrdU/NeuN+ neurons in the hippocampus” value is recorded as “significantly decreased”.
